# Reference: ChEMBL document CHEMBL3885861, “Open TG-GATES”
# Several values for one entry are separate records, joined by “and”; a condition that tells them apart may be missing. Equal entries are not always repeated.
# Species on record: Rattus norvegicus
# Assay: Open TG-GATES - Regimen: Single
# Format: toxicity, organism-based, Sprague-Dawley
# Set-up: regimen Single, gender Male, age 6 weeks
# Settings: in vivo, po, 0 mg/kg, route gavage, dose level Control; for APTT / Bas / Eos / Fbg / Hb / Ht / Lym / MCH / MCHC / MCV / Mono / Neu / PT / Plat / RBC / Ret / WBC: tissue Blood; for KIDNEY_L / KIDNEY_R / KIDNEY_TOTAL: tissue Kidney; for LIVER: tissue Liver; for ALP / ALT / AST / BUN / CRE / Ca / Cl / GLC / IP / K / LDH / Na / PL / RALB / TBIL / TC / TP / gamma-GTP: tissue Plasma
structure (smiles),measurement,setting,value
O=P1(N(CCCl)CCCl)NCCCO1 (stereo not given) [CYCLOPHOSPHAMIDE ANHYDROUS],TERMINAL_BW,3 h,187.8 g and 193 g
same,APTT,3 h,22.9 s and 16.1 s
same,Bas,3 h,0% and 0.2%
same,Eos,3 h,1% and 0.6%
same,Fbg,3 h,287.4 mg/dL and 271.4 mg/dL
same,Hb,3 h,13.1 g/dL and 13.4 g/dL
same,Ht,3 h,39.1% and 39.6%
same,Lym,3 h,84% and 75.6%
same,MCH,3 h,21.3 pg and 21 pg
same,MCHC,3 h,33.5% and 33.7%
same,MCV,3 h,63.6 fL and 62.4 fL
same,Mono,3 h,1.6% and 3.2%
same,Neu,3 h,12.8% and 20.2%
same,PT,3 h,15.9 s and 13.8 s
same,Plat,3 h,124.4 x10_4/uL and 125.2 x10_4/uL
same,RBC,3 h,614.8 x10_4/ul and 636 x10_4/ul
same,Ret,3 h,8.6% and 9.1%
same,WBC,3 h,75.9 x10_2/uL and 115.3 x10_2/uL
same,KIDNEY_L,3 h,0.9 g
same,KIDNEY_R,3 h,0.8 g
same,KIDNEY_TOTAL,3 h,1.7 g
same,LIVER,3 h,8.5 g and 8.2 g
same,ALP,3 h,1691.4 IU/L and 1383.8 IU/L
same,ALT,3 h,46.4 IU/L and 37.2 IU/L
same,AST,3 h,77.8 IU/L and 73.8 IU/L
same,BUN,3 h,13.4 mg/dL and 10 mg/dL
same,CRE,3 h,0.2 mg/dL
same,Ca,3 h,10.6 mg/dL and 11 mg/dL
same,Cl,3 h,106.8 meq/L and 105.2 meq/L
same,GLC,3 h,188.8 mg/dL and 175.4 mg/dL
same,IP,3 h,8.2 mg/dL and 8.4 mg/dL
same,K,3 h,3.8 meq/L and 4.6 meq/L
same,LDH,3 h,185 IU/L and 66 IU/L
same,Na,3 h,144.2 meq/L and 140.4 meq/L
same,PL,3 h,135.6 mg/dL and 140.8 mg/dL
same,RALB,3 h,2.9 g/dL and 2.4 g/dL
same,TBIL,3 h,0.026 mg/dL and 0.066 mg/dL
same,TC,3 h,78.4 mg/dL and 78 mg/dL
same,TP,3 h,5.4 g/dL and 5.2 g/dL
same,gamma-GTP,3 h,1 IU/L and 1.2 IU/L
same,TERMINAL_BW,6 h,190.8 g and 192 g
same,APTT,6 h,21.9 s and 18.3 s
same,Bas,6 h,0%
same,Eos,6 h,0.6% and 1%
same,Fbg,6 h,286 mg/dL and 280.6 mg/dL
same,Hb,6 h,13.3 g/dL and 12.8 g/dL
same,Ht,6 h,39.8% and 38.3%
same,Lym,6 h,78.6% and 76.6%
same,MCH,6 h,21.1 pg and 20.7 pg
same,MCHC,6 h,33.5%
same,MCV,6 h,63.1 fL and 61.8 fL
same,Mono,6 h,2%
same,Neu,6 h,17.8% and 20.2%
same,PT,6 h,16.4 s and 14 s
same,Plat,6 h,122.5 x10_4/uL and 115 x10_4/uL
same,RBC,6 h,630.6 x10_4/ul and 620.2 x10_4/ul
same,Ret,6 h,8.1% and 8.5%
same,WBC,6 h,102.3 x10_2/uL and 90.1 x10_2/uL
same,KIDNEY_L,6 h,0.9 g and 0.8 g
same,KIDNEY_R,6 h,0.9 g and 0.8 g
same,KIDNEY_TOTAL,6 h,1.7 g
same,LIVER,6 h,8.1 g
same,ALP,6 h,1329.6 IU/L and 1641.8 IU/L
same,ALT,6 h,38.8 IU/L and 34.4 IU/L
same,AST,6 h,66.8 IU/L and 71.4 IU/L
same,BUN,6 h,10.8 mg/dL and 10 mg/dL
same,CRE,6 h,0.1 mg/dL and 0.2 mg/dL
same,Ca,6 h,10.6 mg/dL and 11 mg/dL
same,Cl,6 h,106 meq/L and 106.2 meq/L
same,GLC,6 h,185.2 mg/dL and 174.8 mg/dL
same,IP,6 h,8.9 mg/dL and 9 mg/dL
same,K,6 h,4.2 meq/L and 4.3 meq/L
same,LDH,6 h,166.8 IU/L and 60.6 IU/L
same,Na,6 h,143.4 meq/L and 142.4 meq/L
same,PL,6 h,134.2 mg/dL and 136.8 mg/dL
same,RALB,6 h,2.8 g/dL and 2.5 g/dL
same,TBIL,6 h,0.032 mg/dL and 0.068 mg/dL
same,TC,6 h,75.8 mg/dL and 74.2 mg/dL
same,TP,6 h,5.4 g/dL and 5.3 g/dL
same,gamma-GTP,6 h,1 IU/L
same,TERMINAL_BW,9 h,186.5 g and 187.9 g
same,APTT,9 h,20.3 s and 17.4 s
same,Bas,9 h,0%
same,Eos,9 h,0.6% and 1%
same,Fbg,9 h,300.4 mg/dL and 291.4 mg/dL
same,Hb,9 h,13 g/dL and 12.7 g/dL
same,Ht,9 h,38.9% and 38.1%
same,Lym,9 h,80.8% and 75.6%
same,MCH,9 h,21.1 pg and 20.6 pg
same,MCHC,9 h,33.5% and 33.3%
same,MCV,9 h,62.9 fL and 61.8 fL
same,Mono,9 h,1.8%
same,Neu,9 h,16.4% and 20.8%
same,PT,9 h,16.6 s and 13.9 s
same,Plat,9 h,120.1 x10_4/uL and 120.7 x10_4/uL
same,RBC,9 h,619.4 x10_4/ul and 616.6 x10_4/ul
same,Ret,9 h,7.8% and 8.3%
same,WBC,9 h,78.2 x10_2/uL and 80.1 x10_2/uL
same,KIDNEY_L,9 h,0.9 g and 0.8 g
same,KIDNEY_R,9 h,0.9 g and 0.8 g
same,KIDNEY_TOTAL,9 h,1.8 g and 1.6 g
same,LIVER,9 h,7.7 g and 7.1 g
same,ALP,9 h,1482.2 IU/L and 1393 IU/L
same,ALT,9 h,37.6 IU/L and 35 IU/L
same,AST,9 h,69 IU/L and 73.8 IU/L
same,BUN,9 h,10.4 mg/dL and 7.4 mg/dL
same,CRE,9 h,0.1 mg/dL and 0.2 mg/dL
same,Ca,9 h,10.4 mg/dL and 10.7 mg/dL
same,Cl,9 h,106 meq/L and 106.4 meq/L
same,GLC,9 h,178.6 mg/dL and 161 mg/dL
same,IP,9 h,9.7 mg/dL and 9.3 mg/dL
same,K,9 h,3.8 meq/L and 4.2 meq/L
same,Na,9 h,143 meq/L and 141.8 meq/L
same,PL,9 h,126.6 mg/dL and 131.6 mg/dL
same,RALB,9 h,3 g/dL and 2.5 g/dL
same,TBIL,9 h,0.034 mg/dL and 0.072 mg/dL
same,TC,9 h,72.6 mg/dL and 78 mg/dL
same,TP,9 h,5.4 g/dL and 5.3 g/dL
same,gamma-GTP,9 h,1 IU/L and 1.6 IU/L
same,TERMINAL_BW,24 h,205 g and 201 g
same,APTT,24 h,21 s and 17.8 s
same,Bas,24 h,0%
same,Eos,24 h,0.6% and 1.2%
same,Fbg,24 h,300.2 mg/dL and 289 mg/dL
same,Hb,24 h,13.1 g/dL and 13.5 g/dL
same,Ht,24 h,39.3% and 40.6%
same,Lym,24 h,81.8% and 74.6%
same,MCH,24 h,21.4 pg and 20.6 pg
same,MCHC,24 h,33.3% and 33.4%
same,MCV,24 h,64.2 fL and 61.7 fL
same,Mono,24 h,2.2% and 3%
same,Neu,24 h,15.2% and 21%
same,PT,24 h,16.5 s and 14 s
same,Plat,24 h,120.5 x10_4/uL and 107.8 x10_4/uL
same,RBC,24 h,612.4 x10_4/ul and 658.4 x10_4/ul
same,Ret,24 h,7.8% and 7.5%
same,WBC,24 h,90.3 x10_2/uL and 86.9 x10_2/uL
same,KIDNEY_L,24 h,0.9 g
same,KIDNEY_R,24 h,0.9 g and 0.8 g
same,KIDNEY_TOTAL,24 h,1.9 g and 1.7 g
